Measured values reported in patent US11759518B2, “Medicine for treating cancer by administering a toll-like receptor agonist and LAG-3 IgG fusion protein” (NEC CORPORATION, priority 2016, dated 2023).

Experiments:
P815 tumor cells = assay: Suppression of tumor growth by immunoadjuvant combination, P815 model; format: in vivo, mouse; settings: DBA/2 mice with P815 tumor, PIA CTL i.v. Day 7
From the text: The following substances were used as adjuvants.
Poly I:C (TLR3 agonist) (Invivogen, SanDiego, USA)
RIBOXXOL (TLR3 agonist) (Riboxx, Radebeul, Germany)
MPL (TLR4 agonist) (Invivogen, SanDiego, USA)
Imiquimod (TLR7/8 agonist) (Invivogen, SanDiego, USA)
CpG (TLR9 agonist) (Invivogen, SanDiego, USA)
LAG-3Ig (Adipogen, SanDiego, USA)
P815 tumor cells were subcutaneously inoculated to DBA/2 mice in an amount of 5×10^5 cells per mouse to prepare cancer model mice. The day of inoculation was specified as Day 0. On Day 7, PIA CTL (2.5×10^5 cells per mouse) were intravenously injected. Day 8 and Day 15, an admixture of PIA peptide (50 μg per mouse) and an adjuvant in PBS was subcutaneously injected. Mice were divided into 9 groups each consisting of 4 or 5 mice and the following adjuvants were used respectively.
Group 1: PIA peptide alone (control)
(§1) Group 2: Poly I:C (50 μg/mouse)
Group 3: Poly I:C (50 μg/mouse)+LAG-3Ig (1 μg/mouse)
Group 4: No PIA peptide, Poly I:C (50 μg/mouse)+LAG-3Ig (1 μg/mouse) alone
Group 5: RIBOXXOL (100 μg/mouse) Group 6: RIBOXXOL (100 μg/mouse)+LAG-3Ig (1 μg/mouse)
Group 7: MPL (10 μg/mouse)+LAG-3Ig (1 μg/mouse) Group 8: Imiquimod (50 μg/mouse)+LAG-3Ig (1 μg/mouse)
Group 9: CpG (10 μg/mouse)+LAG-3Ig (1 μg/mouse)

B16-F10 melanoma cells = assay: Tumor growth inhibitory effect of immuno-adjuvant combination in B16-F10 melanoma inoculation model mice; format: in vivo, mouse; settings: C57BL/6 mice with B16-F10 melanoma
Method: To C57BL/6 mice, B16-F10 melanoma cells (1×10^5 cells per mouse) were subcutaneously inoculated to prepare cancer model mice. The day of inoculation was specified as Day 0. On Day 5 and Day 12, twice in total, an admixture of gp100 peptide (50 μg per mouse) and an adjuvant in PBS was subcutaneously injected. The following adjuvants were used in respective mice groups.
Group 1: IFA (50 μL/mouse)
as §1
Group 3: LAG-3Ig (1 μg/mouse)
Group 4: LAG-3Ig (1 μg/mouse)+Poly I:C (50 μg/mouse)

[1] = system: P815 cells (DBA/2mouse-derived mouse mastocytoma); assay: Comparison of adjuvants in a cancer vaccine with PIA peptide, tumor size and survival; format: in vivo; settings: DBA/2 mice with P815 tumor, 5 mice per group; PIA CTL i.v. Day 8; adjuvant admixed with PIA peptide 50 μg per mouse s.c. Day 9 and Day 16
From the text: In accordance with the protocol shown in FIG. 1, the effects of adjuvants in cancer vaccines using a cancer-antigen derived peptide were compared.
As cancer model mice, DBA/2 mice, to which P815 cells (DBA/2mouse-derived mouse mastocytoma) were grafted, were put in use.
As a cancer-antigen derived peptide, a peptide (hereinafter referred to as “PIA peptide”) consisting of a partial sequence of PIA protein was used, which is a tumor antigen of P815 tumor and known to be restrictively presented by an MHC H-2Ld. The amino acid sequence of PIA peptide are represented by LPYLGWLVF (SEQ. ID No: 40).
As PIA CTL, a T cell expressing a T cell receptor and recognizing PIA peptide was used. […] Based on the positive ratio, the number of PIA-CTL cells was determined and administered.
As the adjuvants, the following substances were used.
P815 tumor cells were subcutaneously inoculated to DBA/2 mice in an amount of 5×10^5 cells per mouse. The day of inoculation was specified as Day 0. On Day 8, PIA CTL (2.5×10^5 cells per mouse) were intravenously injected. On Day 9 and Day 16, an admixture of PIA peptide (50 μg per mouse) and an adjuvant in PBS was subcutaneously injected. Mice were divided into 9 groups each consisting of 5 mice and the following adjuvants were used, respectively.
Group 2: IFA (50 μL/mouse)
Group 3: PT (1×10^8/mouse)
Group 4: Poly I:C (50 μg/mouse) […]

## LPYLGWLVF [PIA peptide alone]
P815 tumor cells; s.c. injection Day 8 and Day 15
  mice died up to Day 40: 5 out of 5

## Polyinosinic:polycytidylic acid [Poly I:C]
B16-F10 melanoma cells; Groups 2 and 3 compared to Group 1 (IFA), Group 4 compared to Groups 1, 2 and 3
  effect of extending survival time: a significant effect of extending survival time was not observed
B16-F10 melanoma cells; adjuvant admixed with gp100 peptide 50 μg s.c. Day 5 and Day 12
  day on which five mice all died: 35 days
[1]
  number of mice survived until Day 70 without increasing tumor size: 1
P815 tumor cells; read against Day 40 of the preceding sentence, adjuvant admixed with PIA peptide (unless stated) s.c. Day 8 and Day 15
  mice survived: Four out of 5
